Experimental data: patent US7960549B2, “Solid forms of a chemokine receptor antagonist and methods of use thereof” (priority 2004, dated 2011)
Structures can show the parent of a compound that is named as a salt.

Experiments:
Format in all cases: physicochemical
[1] = Differential scanning calorimetry (DSC)
Experimental: Differential scanning calorimetry (DSC) analyses are performed using a T.A Instruments Q1000 thermal analyser. Analyses are carried out using nitrogen purge gas flowing at an average rate of 50 ml/min. A mechanical compressor cools the system, and equilibrates the instruments being used at ambient temperature between analyses. […] Energy calibration is performed with a certified indium calibrator (melting enthalpy of 28.45 J/g), applying a heating rate of 5° C./min. The temperatures identified from DSC scans of a particular sample are accurate to within ±3° C. […] Modulated temperature differential scanning calorimetry (MTDSC) is also used since deconvolution of the total heat flow into reversing and non-reversing heat flows allows the transitions to be easily identified. The samples were submitted to the same experimental temperature program: after the equilibration of the sample at −5° C., the samples were heated through a modulated program from −5° C. to 210° C. at a rate of 1° C./min. […] Experiments are performed using crimped aluminium sample pans or open pans in some cases. The quantity of product analysed is typically between 2 and 13 mg.

[2] = Water sorption/desorption cycling (dynamic vapor sorption, DVS) at 25° C., with XRPD before and after; conditions: for global / net weight loss after all 4 water sorption/desorption cycles: four cycles between 100% and 0% relative humidity; for XRPD before and after water sorption/desorption cycling: four consecutive cycles, start at 40%, cycled between 100% and 0% relative humidity, mixed samples
Experimental: Water sorption measurements are performed on a DVS-1 automated gravimetric vapor sorption analyser (Surface Measurement Systems Ltd., London, UK). The DVS-1 measures the uptake and loss of vapor gravimetrically using a Cahn D200 recording ultra-microbalance with a mass resolution of ±0.1 μg. The relative humidity around the sample is controlled by mixing saturated and dry carrier gas streams using mass flow controllers. The temperature is maintained within ±0.1° C. by enclosing the entire system in a temperature-controlled incubator. A sample size between 15 and 20 mg is used. In general, the error in % (w/w) identified in a tested sample is ±0.1% (w/w).
Two protocols are utilized to operate the DVS. In one protocol, a sample is dried at 0% relative humidity (RH) to remove any surface water present and establish a dry, baseline mass. Next, the sample is exposed to the following relative humidity profile: 0%, 10%, 20%, 30%, 40%, 50%, 60%, 70%, 80%, 90%, 80%, 70%, 60%, 50%, 40%, 30%, 20%, 10%, 0%. In some instances, this profile is repeated, yielding 4 sets of data going up and down in RH. In another protocol, the sample is first equilibrated at 40% RH, then it was exposed to the following relative humidity profile: 40%, 50%, 60%, 70%, 80%, 90%, 100%, 90%, 80%, 70%, 60%, 50% 40% 30%, 20% 10%, 0%, 10%, 20%, 30%, 40%. […] If equilibrium state is not reached, the change in relative humidity took place automatically after 360 or 600 minutes. From the complete moisture sorption and desorption profile, an isotherm is calculated using the DVS Advanced Analysis Suite v3.6. All experiments were performed at 25° C.

[3] = Thermal gravimetric analysis (TGA)
Experimental: Measurements utilizing thermal gravimetric analysis (TGA) are carried out on a T.A. instruments TGAQ500 analyzer. Mass calibration is performed with 10 and 100 mg certified masses. Temperature calibration is performed with Alumel® and nickel standards (Curie points of respectively 154° C. and 354° C.). Samples are exposed to a constant nitrogen stream of 60 ml/min, and temperature ranges from room temperature to 350° C. at a 5° C./min rate. The quantity of product tested is between 2 and 13 mg. The sample is deposited in an open aluminum sample pan, which is itself placed in a platinum pan. The temperatures identified from TGA scans of a particular sample are accurate to within ±3° C. Simultaneous TGA and DSC measurements are carried out using a […] thermal analysis system produced by the […] corporation. A liquid nitrogen cooling system makes it possible to work at temperatures below 20° C. The emitted gases, upon sample heating, are carried by a transfer capillary tube to a Pfeiffer mass spectrometer, the capillary tube heated to 150° C. The mass spectrometer can analyze molecular fragments at <<m/e>> ratios between 1 and 200 uma. A sample with a mass between 1 and 27 mg is contained in an open concave aluminum sample pan (75 μL capacity) exposed to a nitrogen stream. The sample is heated at a rate of 1 or 5° C./min.

[4] = Controlled temperature (isothermal) X-ray powder diffraction: thermal stability of the crystalline form; conditions: dry nitrogen; for form conversion as the temperature is raised (isothermal XRPD): ambient to 210° C.; for loss of stability (lines unique to the form disappear), isothermal XRPD: sample containing Forms E, F, and G, steps of 10° C.
Experimental: X-ray powder diffraction (XRPD) is performed on various samples of the Citrate Salt using one of three instruments. XRPD measurements with Instrument 1 utilize a Siemens-Bruker D5000 Matic powder diffractometer with a Bragg-Brentano (vertical θ-2θ configuration) parafocusing geometry. X-rays are produced from a sealed cobalt anode running at 40 kV and 30 mA. Two lines are typically emitted: CoKα1 (λ=1.7890 Å) and CoKα2 (λ=1.7929 Å). An iron β-filter limits the CoKβ (λ=1.6208 Å) radiation to about 1% of the diffracted beam at the detector. The primary beam passes through a parallel plate collimator (0.2 mm Soller slits), then through a divergence slit (0.2 mm). Diffracted X-rays are detected with a Braun 50 M multichannel linear detector having a 10°-wide detection window in angle 2θ. Scans are performed from 1.5° to 50.0° in 2θ, the scan time being 10 to 40 seconds per degree in 2θ. The error in the 2θ locations are typically within ±0.10 degrees.
In Instrument 3, XRPD measurements are performed at different temperatures to elucidate the evolution of crystal structure with temperature. Tests are carried out with a Siemens-Bruker D5000 diffractometer equipped with the Bragg Brentano parafocusing (θ-θ) geometry and an Anton-Paar TTK temperature chamber. Measurements utilize dry nitrogen or nitrogen streams having a particular humidity. The instrument specifications are substantially similar to the Siemens-Bruker D5000 Matic instrument described above (Instrument 1). Temperature is allowed to rise at a rate of 0.05° C./sec. Scans are recorded under the following conditions: a 1.5 to 50.0 degree scan in angle 2θ, 10 to 20 seconds counting time per degree in 2θ. Data are acquired in isotherm mode when the requested temperature is reached.

[5] = mixture of Forms A and D, 0.3° C./min
[6] = sample containing Forms A and D, 5° C./min
[7] = transition 3411 (first endothermic transition, conversion of Form E to Form B), heating rate 5° C./min
[8] = transition 3412 (second endothermic transition, conversion of Form F to Form B), heating rate 5° C./min
[9] = transition 3413 (third endothermic transition, conversion of Form G to Form B), heating rate 5° C./min
[10] = transition 3414 (fourth endothermic transition, decomposition/melting of crystalline Form B), heating rate 5° C./min
[11] = 25° C., listed as Forms E, F, and G
[12] = weight transition 2811 (conversion away from Form E), 5° C./min
[13] = weight transition 2812 (conversion away from Form F), 5° C./min
[14] = weight transition 2813 (conversion away from Form G), 5° C./min
[15] = weight transition 2814 (decomposition/melting of crystalline Form B, loss of citrate), 5° C./min
[16] = heating rate 5° C./min, A, B, H: melting/decomposition, E: loss of water and conversion to Form H, ±3° C.
[17] = heating rate 5° C./min, sample of the single form (Form H formed from Form E sample), ±3° C.
[18] = mixture of Forms A and D, 0.3° C./min, Form D: conversion to Form A, Form A: melting/decomposition

CC(C)(O)c1ccc2c(c1)/C(=C/CCN1CC[C@](O)(c3ccc(Cl)cc3)C(C)(C)C1)c1cccnc1CO2 [Forms A and D]
DSC endothermic transition 1912 (release of THF), Tmax [1, 5]: 77 °C
DSC endothermic transition 1912 (release of THF), beginning temperature [1, 5]: about 60 °C
DSC endothermic transition 1912 (release of THF), enthalpy [1, 5]: 18.1 J/g
global / net weight loss after all 4 water sorption/desorption cycles ([2]; 25° C.): about 14.3 % (w/w)
TGA second weight loss transition 1812, interpolated beginning temperature [3, 6]: 164 °C
TGA second weight loss transition 1812, temperature of maximum weight loss rate [3, 6]: 180 °C

CC(C)(O)c1ccc2c(c1)/C(=C/CCN1CC[C@](O)(c3ccc(Cl)cc3)C(C)(C)C1)c1cccnc1CO2 [Form E, F, and G]
Integrated Enthalpy Change [1, 7]: 20.3 J/g
Interpolated Starting T [1, 7]: 78 °C
Tmax [1, 7]: 99 °C
Integrated Enthalpy Change [1, 8]: 5.8 J/g
Interpolated Starting T [1, 8]: 119 °C
Tmax [1, 8]: 124 °C
Integrated Enthalpy Change [1, 9]: 2.4 J/g
Interpolated Starting T [1, 9]: 131 °C
Tmax [1, 9]: 136 °C
Interpolated Starting T [1, 10]: 165 °C
Tmax [1, 10]: 181 °C
global / net weight loss after all 4 water sorption/desorption cycles [2, 11]: about 7.5 % (w/w)
weight change / water uptake between 10% and 90% relative humidity [2, 11]: 2.10 % (w/w)
weight gain / water uptake as relative humidity is increased from 0% to 10% [2, 11]: 3.76 % (w/w)
Interpolated Starting T (° C.) [3, 12]: 42 °C
T (° C.) corresponding to Max. Rate of Weight Change [3, 12]: 50 °C
Weight Loss % (w/w) [3, 12]: 1.9 % (w/w)
Interpolated Starting T (° C.) [3, 13]: 110 °C
T (° C.) corresponding to Max. Rate of Weight Change [3, 13]: 123 °C
Weight Loss % (w/w) [3, 13]: 3.6 % (w/w)
Interpolated Starting T (° C.) [3, 14]: 131 °C
T (° C.) corresponding to Max. Rate of Weight Change [3, 14]: 138 °C
Weight Loss % (w/w) [3, 14]: 1.6 % (w/w)
Interpolated Starting T (° C.) [3, 15]: 166 °C
T (° C.) corresponding to Max. Rate of Weight Change [3, 15]: 187 °C
Weight Loss % (w/w) [3, 15]: 22.6 % (w/w)

CC(C)(O)c1ccc2c(c1)/C(=C/CCN1CC[C@](O)(c3ccc(Cl)cc3)C(C)(C)C1)c1cccnc1CO2 [Form H, citrate salt of (S)-4-(4-Chloro-phenyl)-1-{3-[7-(1-hydroxy-1-methyl-ethyl)-11H-10-oxa-1-aza-dibenzo[a,d]cyclohepten-5-ylidene]-propyl}-3,3-dimethyl-piperidin-4-ol]
DSC endothermic transition, Tmax [1, 16]: 141 °C
DSC endothermic transition, interpolated beginning temperature [1, 16]: 131 °C
behaviour when exposed to 10% relative humidity or higher ([2]; ambient temperatures): reversibly transforms into form E
TGA weight loss of the transition ([3]; heating rate 5° C./min, sample of the single form (Form H formed from Form E sample)): 20.10 % (w/w)
TGA weight loss transition, interpolated beginning temperature [3, 17]: 127 °C
TGA weight loss transition, temperature of maximum rate of weight loss [3, 17]: 142 °C

CC(C)(O)c1ccc2c(c1)/C(=C/CCN1CC[C@](O)(c3ccc(Cl)cc3)C(C)(C)C1)c1cccnc1CO2 [Form F, citrate salt of (S)-4-(4-Chloro-phenyl)-1-{3-[7-(1-hydroxy-1-methyl-ethyl)-11H-10-oxa-1-aza-dibenzo[a,d]cyclohepten-5-ylidene]-propyl}-3,3-dimethyl-piperidin-4-ol]
form conversion as the temperature is raised (isothermal XRPD) [4]: converts to Form B
loss of stability (lines unique to the form disappear), isothermal XRPD [4]: greater than 110 °C
XRPD before and after water sorption/desorption cycling ([2]; 25° C.): disappears

CC(C)(O)c1ccc2c(c1)/C(=C/CCN1CC[C@](O)(c3ccc(Cl)cc3)C(C)(C)C1)c1cccnc1CO2 [Form G, citrate salt of (S)-4-(4-Chloro-phenyl)-1-{3-[7-(1-hydroxy-1-methyl-ethyl)-11H-10-oxa-1-aza-dibenzo[a,d]cyclohepten-5-ylidene]-propyl}-3,3-dimethyl-piperidin-4-ol]
form conversion as the temperature is raised (isothermal XRPD) [4]: converts to Form B
loss of stability (lines unique to the form disappear), isothermal XRPD [4]: ≥ 130 °C
XRPD before and after water sorption/desorption cycling ([2]; 25° C.): have dissipated

CC(C)(O)c1ccc2c(c1)/C(=C/CCN1CC[C@](O)(c3ccc(Cl)cc3)C(C)(C)C1)c1cccnc1CO2 [Form D, citrate salt of (S)-4-(4-Chloro-phenyl)-1-{3-[7-(1-hydroxy-1-methyl-ethyl)-11H-10-oxa-1-aza-dibenzo[a,d]cyclohepten-5-ylidene]-propyl}-3,3-dimethyl-piperidin-4-ol]
DSC endothermic transition, Tmax [1, 18]: 52 °C
DSC endothermic transition, interpolated beginning temperature [1, 18]: about 47 °C
DSC endothermic transition, integrated enthalpy ([1]; mixture of Forms A and D, 0.3° C./min, conversion of Form D to Form A): 3.7 J/g
transition to Form A observed by temperature controlled XRPD ([4]; sample containing Forms A and D): below 60 °C
XRPD before and after water sorption/desorption cycling ([2]; 25° C.): disappeared after the cycling; only the signature of Form A remains
